Data published in patent US7790668B2, “2-methoxy-2,6-dimethyloctanal and its use as a fragrance ingredient” (Givaudan SA, priority 2005, dated 2010).

Experiment: Odour threshold concentration by using an olfactometer
Conditions: for Odour threshold concentration, geometric mean: olfactometer, forced-choice triangle presentation, group of 12 panelists, both compounds measured on the same day under identical conditions; for odour threshold concentration, times lower compared to 6-methoxy-2,6-dimethylheptanal (Methoxymelonal): ratio of the geometric mean thresholds vs the prior-art compound
Source text: The odour threshold concentration is defined as the lowest concentration of the vapour of an odorous material in the air which can be detected by smell. The concentration can be measured by standard methods known in the art by using either olfactometry means or sniff-bottles allowing panelists to smell the presented headspace.
The olfactometer functions on the principle of a linear dilution of an odorant in a carrier gas. The quantity of odorant displaced depends on its vapour pressure and the carrier gas flow. A constant flow of nitrogen, regulated by a flow regulator, carries the odorant from a sample container to a mixing chamber. There, the carrier gas-odour mixture is diluted with odourless air. From the mixing chamber one part of the diluted odorous air is allowed to flow via a fused silica capillary to the sniffing funnel. The flow rate through the capillary, which determines the dosage of odorous air from the mixing chamber into the sniffing funnel, depends on the opening of the valve which can be regulated via PC from 1 to 256 ml in binary steps. The final dilution of the odorous air sample occurs in the glass funnel by flushing them permanently with odourless air at a flow rate of 8 L/min. Forced-choice triangle presentation is achieved by a special automated channel setting device where only in one position of a switch the odorant delivering capillary enters in the sniffing funnel, whereas in the two other positions the capillary is positioned outside the funnel and where the effluent is sucked away. After each trial the channel setting is changed automatically and in a random order. The concentration is calculated from the odorants vapour pressure and from the dilution ratios that were applied in the olfactometer, assuming that vapour saturation is achieved in the sample generator. As a control the concentration was by sampling a known volume from the capillary effluent into a headspace filter and then determined. The panelist starts sniffing at the olfactometer at a concentration level at which he perceives the odorant at medium intensity. After three correct answers in three consecutive trials (or four correct ones of five trials) at the same level, stimulus concentration is decreased by a factor of two to the next lower level, and so on, until the panelist has reached his threshold level.
Under identical conditions the odour threshold concentration for 6-methoxy-2,6-dimethyloctanal and 6-methoxy-2,6-dimethylheptanal was measured and compared by a group of 12 panelists. The sequence with which of the two compounds the panelist started smelling was alternated. Both compounds were measured on the same day and the following data were obtained: […]

## COC(C)(C)CCCC(C)C=O (stereo not shown) [6-methoxy-2,6-dimethylheptanal, reference compound]
  Odour threshold concentration, geometric mean: 1.92 ng/L

## CCC(C)(CCCC(C)C=O)OC (stereo not shown) [6-methoxy-2,6-dimethyloctanal]
  Odour threshold concentration, geometric mean: 0.78 ng/L
  odour threshold concentration, times lower compared to 6-methoxy-2,6-dimethylheptanal (Methoxymelonal): about 2.5 times
Listed as compound of the present invention
  odour threshold concentration, times lower compared to 6-methoxy-2,6-dimethylheptanal (Methoxymelonal): 2.46 times
